Assay results as given in patent publication US6245816A, “Benzoylphenylurea insecticides and methods of using certain benzoylphenylureas to control ants” (priority 2000, dated 2001).

How the values were obtained:
Format in all cases: in vivo
[1] = system: German cockroach 2nd instars (Blattella germanica); test: German cockroach 2nd instars, continuous, low-dose ingestion exposure (treated cornmeal); conditions: for activity relative to hexaflumuron: continuous exposure; for activity relative to hexaflumuron / activities in cockroaches (Compounds 1, 2, and 3 compared): in words; for LC50 (ppm) 21 days / LC50 (ppm) 42 days: continuous ingestion exposure, treated cornmeal; for activities in cockroaches (Compounds 1, 2, and 3 compared): test not specified further, all three compounds were tested only under continuous exposure
From the text: German cockroach 2nd instars (Blattella germanica)
Continuous, low-dose ingestion exposure (treated cornmeal)

[2] = system: German cockroach 2nd instars (Blittella germanica); test: German cockroach 2nd instars, limited ingestion exposure (48 hr) to treated cornmeal; conditions: for potency relative to hexaflumuron: limited exposure, at both 21 and 42 days after exposure, in words
From the text: German cockroach 2nd instars (Blittella germanica)
Limited ingestion exposure (48 hr) to treated cornmeal

[3] = system: Cat Flea (Ctenocephalides felis); test: Cat flea, continuous exposure of larvae to treated media, impact on subsequent adult emergence; conditions: for efficacy relative to hexaflumuron: cat fleas, in words
From the text: Cat Flea (Ctenocephalides felis)
Continuous exposure of larvae to treated media, impact on subsequent adult emergence

[4] = system: Subterranean Termite (Reticulitermes flavipes); test: Subterranean termite, continuous exposure (56 days) to treated paper; conditions: for LC50 (ppm) 56 days / LC50 (ppm) 35 days: continuous exposure to treated paper; for potency and speed of action relative to hexaflumuron: continuous exposure, in words
From the text: (§1) Subterranean Termite (Reticulitermes flavipes)
Continuous exposure (56 days) to treated paper

[5] = system: Subterranean Termite (Reticulitermes flavipes); test: Subterranean termite, limited exposure (7 days), mortality at 14, 28, 42 and 56 days; conditions: high rate, in words
From the text: as §1
Limited exposure (7 days) with mortality determined at 14, 28, 42, and 56 days

[6] = system: Red Imported Fire Ant (RIFA) (Solenopsis inivicta); test: Laboratory ant bait study, Red Imported Fire Ant, brood reduction; conditions: for Time to Achieve 50% Brood Reduction / Time to Achieve 90% Brood Reduction: RIFA, 3-4 day exposure
Protocol: (§2) Laboratory ant bait studies were carried out with Red Imported Fire Ant (RIFA) (Solenopsis inivicta) and Pharaoh Ant (Monomorium pharionis). Chitin synthesis inhibitors, such as the compounds of the invention, control ants by killing the molting larvae and/or pupae and potentially preventing the hatching of eggs. Because adult workers are not affected, control is measured by effects on the brood. The studies involved 3-4 day exposure to bait. These limited exposure studies more accurately represent real world bait availability than continuous exposure.

[7] = system: Pharaoh Ant (Monomorium pharionis); test: Laboratory ant bait study, Pharaoh Ant, brood reduction; conditions: 0.1% in bait, 3-4 day exposure
Protocol: as §2

Daphnia = test: Activity against Daphnia, 48 hr exposure to treated water
[8] = limited ingestion exposure (48 hr), treated cornmeal
[9] = continuous exposure of larvae to treated media, subsequent adult emergence
[10] = 0.1% in bait, NA = not achieved

O=C(NC(=O)c1c(F)cccc1F)Nc1cc(Cl)c(OC(F)(F)C(F)C(F)(F)F)c(Cl)c1F (stereo not shown) [Compound 1, N-[3,5-Dichloro-2-fluoro-4-(1,1,2,3,3,3-hexafluoropropoxy)phenyl]-N'-(2,6-difluorobenzoyl)urea]
activity relative to hexaflumuron [1]: far more active than hexaflumuron
LC50 (ppm) 21 days [1]: < 2.2 ppm
LC50 (ppm) 42 days [1]: < 0.78 ppm
activities in cockroaches (Compounds 1, 2, and 3 compared) [1]: quite similar
potency relative to hexaflumuron [2]: more potent than hexaflumuron
LC50 (ppm) 42 days [2, 8]: < 9.1 ppm
efficacy relative to hexaflumuron [3]: far more efficacious than hexaflumuron
LC50 (ppm) [3, 9]: 2.8 ppm
LC90 (ppm) [3, 9]: 22 ppm
LC50 (ppm) 56 days [4]: < 0.78 ppm
potency and speed of action relative to hexaflumuron [4]: more potent and quicker acting than hexaflumuron
mortality relative to hexaflumuron [5]: induced more mortality earlier than did hexaflumuron
Time to Achieve 50% Brood Reduction [6, 10]: 2 wks
Time to Achieve 90% Brood Reduction [6, 10]: 3 wks
potency relative to hexaflumuron ([6]; short exposure study with RIFA, in words): significantly more potent than hexaflumuron
Percent brood reduction achieved at end of study ([7]; @ 13 wks): 70%
Time to Achieve 50% Brood Reduction ([7]; NA = not achieved): 4 wks

CCN(C(=O)NC(=O)c1c(F)cccc1F)c1cc(Cl)c(OC(F)(F)C(F)C(F)(F)F)c(Cl)c1F (stereo not shown) [Compound 2, N-[3,5-Dichloro-2-fluoro-4-(1,1,2,3,3,3-hexafluoropropoxy)phenyl]-N'-(2,6-difluorobenzoyl)-N-ethylurea]
activity relative to hexaflumuron [1]: far more active than hexaflumuron
LC50 (ppm) 21 days [1]: 0.35 ppm
LC50 (ppm) 42 days [1]: 0.26 ppm
activities in cockroaches (Compounds 1, 2, and 3 compared) [1]: quite similar
potency relative to hexaflumuron [2]: more potent than hexaflumuron
efficacy relative to hexaflumuron [3]: far more efficacious than hexaflumuron
LC50 (ppm) 35 days [4]: < 0.78 ppm
LC50 (ppm) 56 days [4]: < 0.78 ppm
potency and speed of action relative to hexaflumuron [4]: more potent and quicker acting than hexaflumuron
activity against Daphnia relative to Compound 1 and hexaflumuron (Daphnia; in vivo): much less active against Daphnia than were Compound 1 and hexaflumuron

CCN(C(=O)Nc1cc(Cl)c(OC(F)(F)C(F)C(F)(F)F)c(Cl)c1F)C(=O)c1c(F)cccc1F (stereo not shown) [Compound 3, N-[3,5-Dichloro-2-fluoro-4-(1,1,2,3,3,3-hexafluoropropoxy)phenyl]-N'-(2,6-difluorobenzoyl)-N'-ethyl urea]
activity relative to hexaflumuron [1]: far more active than hexaflumuron
LC50 (ppm) 21 days [1]: 8.0 ppm
LC50 (ppm) 42 days [1]: 1.5 ppm
activities in cockroaches (Compounds 1, 2, and 3 compared) [1]: quite similar
activity against Daphnia relative to Compound 1 and hexaflumuron (Daphnia; in words): much less active against Daphnia than were Compound 1 and hexaflumuron

O=C(NC(=O)c1c(F)cccc1F)Nc1cc(Cl)c(OC(F)(F)C(F)F)c(Cl)c1 [hexaflumuron, reference compound]
LC50 (ppm) 21 days [1]: > 200 ppm
LC50 (ppm) 42 days [1]: > 200 ppm
LC50 (ppm) 21 days ([2]; limited ingestion exposure (48 hr), treated cornmeal, 21 days): > 10,000 ppm
LC50 (ppm) 42 days [2, 8]: > 10,000 ppm
LC50 (ppm) 35 days [4]: > 200 ppm
LC50 (ppm) 56 days [4]: 1.3 ppm
Time to Achieve 50% Brood Reduction ([6]; 0.25% in bait): 4 wks
Time to Achieve 90% Brood Reduction ([6]; 0.25% in bait): 10 wks
